From patent publication US9493451B2 (Bionomics Limited, priority 2011, dated 2016) come the findings set out here.

SMILES strings stand for the structures.

The IC50 is the midpoint of a concentration-inhibition curve.

T1 sequence (P22001 whole entry): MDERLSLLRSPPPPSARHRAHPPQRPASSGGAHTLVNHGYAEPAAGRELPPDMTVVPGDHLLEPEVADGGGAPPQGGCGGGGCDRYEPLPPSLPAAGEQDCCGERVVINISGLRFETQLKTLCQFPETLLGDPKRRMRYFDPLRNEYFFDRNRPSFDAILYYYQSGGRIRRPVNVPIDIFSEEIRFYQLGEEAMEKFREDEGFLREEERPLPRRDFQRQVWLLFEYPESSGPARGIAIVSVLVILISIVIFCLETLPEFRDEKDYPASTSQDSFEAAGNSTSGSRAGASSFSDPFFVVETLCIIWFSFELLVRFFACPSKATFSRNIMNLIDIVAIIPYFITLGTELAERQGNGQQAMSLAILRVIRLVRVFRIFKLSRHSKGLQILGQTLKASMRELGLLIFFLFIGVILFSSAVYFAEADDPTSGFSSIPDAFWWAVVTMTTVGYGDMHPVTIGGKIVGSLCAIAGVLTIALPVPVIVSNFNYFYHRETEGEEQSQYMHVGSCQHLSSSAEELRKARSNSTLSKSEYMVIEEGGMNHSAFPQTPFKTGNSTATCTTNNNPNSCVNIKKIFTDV

This test concerns the target T1, Kv1.3 (Homo sapiens, UniProt P22001).
T1 construct: expressed in transfected cells; host or cells: CHO (Kv1.3/CHO)
As to the kind of experiment: Electrophysiology: planar patch-clamp of Kv1.3 currents, IC50 from steady state current amplitude. To be noted: Kv1.3 electrophysiology, results according to Method D1, read-out: IC50 (Kv1.3 ephys steady state). The class given is cell-based. The method, then: The inhibition data shown for the compounds of the list below was calculated using the steady state current amplitude at the end of the depolarising pulse in patch clamp evaluations (as described in the Biology Protocols: 1. Electrophysiology).
Kv1.x currents were measured in Kv1.3/CHO or Kv1.5/CHO cells using a planar electrode version (Nanion Technologies GMBH) of the patch-clamp technique. Whole-cell Kv1.x current transients were evoked by 500 ms depolarising voltage pulses to +40 mV from a holding potential of −80 mV applied at 10 s intervals for Kv1.5 and at 30 s intervals for Kv1.3 to allow adequate time for recovery from inactivation. Cells were continuously bathed in a buffered saline solution containing (mM): 160 NaCl, 4.5 KCl, 2 CaCl2, 1 MgCl2, 5 glucose, 10 HEPES, pH 7.4, 290-310 mOsm·Kg^−1. The internal (pipette) solution contained (mM): 10 NaCl, 70 KF, 75 KCl, 2 MgCl2, 10 HEPES, 10 EGTA, pH 7.2, 290-310 mOsm·Kg^−1. Series resistance compensation (60-80%) was applied to cells in which the peak current amplitude exceeded 2 nA.
Compound Preparation and Potency Assessment
Compounds were initially dissolved in DMSO to 10 mM. After further dilution in DMSO, compounds were finally diluted in bath solution 1/200 (to give a final DMSO concentration of 0.5%) and applied directly to the recording chamber. Compounds were added at increasing concentrations allowing ample time for steady state block to be achieved between each concentration. Each compound was tested at 5-6 different concentrations on 2-3 cells. Compound IC50 values were determined by fitting the average normalised reduction of either the current integral or the steady state current amplitude at the end of the 500 ms depolarising pulse obtained at each compound concentration to the Hill equation. The IC50 data reported herein is based on the steady state calculation.
Turning to `CN1CC(C(c2ccc(F)cc2)N(Cc2ncccc2F)C(=O)C2CC2c2ccc(F)cc2)C1` (stereo not drawn) [Example 155], the IC50 fell in the range of 200 to 1000 nM.

Consider `CCS(=O)(=O)c1cccc(C(C2CC2)N(CC(F)(F)c2ccccn2)C(=O)C2CC2c2ccc(F)cc2)c1` (stereo not drawn) [Example 191], for which the IC50 lay in the range of 50 to 200 nM.

Consider `CCS(=O)(=O)c1cccc(C(C2CC2)N(Cc2ccc(F)cn2)C(=O)C2CC2c2cccc(C(F)(F)F)c2)c1` (stereo not drawn) [Example 212], for which the half-inhibitory concentration (IC50) lay within 50 to 200 nM.

With `CC(C)S(=O)(=O)c1cccc(C(C2CC2)N(Cc2ccc(F)cn2)C(=O)C2CC2c2ccc(F)cc2)c1` (stereo not drawn) [Example 243], the IC50 lay in the range of 50 to 200 nM.

With `O=C(C1CC1c1ccc(F)cc1)N(Cc1ncccc1F)C(c1ccc(F)cc1)C1CCOC1` (stereo not drawn) [Example 171], the concentration for half-maximal inhibition (IC50) lay in the range of 200 to 1000 nM.

`COc1ccc(CN(C(=O)CC(C)S(=O)(=O)c2ccc(F)cc2)C(c2ccc(OC(F)F)cc2)C2CC2)cn1` (stereo not drawn) [Example 88, N-{cyclopropyl[4-(difluoromethoxy)phenyl]methyl}-3-[(4-fluorophenyl)sulfonyl]-N-[(6-methoxypyridin-3-yl)methyl]butanamide]: the IC50 lay in the range of 50 to 200 nM.

For the compound `CC(CC(=O)N(Cc1ccc(F)cn1)C(c1ccc(F)cc1F)C1CCN(C)CC1)c1ccc(F)cc1` (stereo not drawn) [Example 271], the IC50 lay in the range of 200 to 1000 nM.

On to `CN1CC(C(c2ccc(F)cc2)N(Cc2ncccc2F)C(=O)C2CC2c2ccc(F)cc2)C1` (stereo not drawn) [Example 156], for which the half-maximal inhibitory concentration (IC50) lay within 50 to 200 nM.

Regarding `CC(c1ccc(S(C)(=O)=O)cc1)N(Cc1ccc(C(F)(F)F)nc1)C(=O)C(C)(C)S(=O)(=O)c1ccccc1` (stereo not drawn) [Example 288], the IC50 fell in the range of 1000 to 2000 nM.

In the case of `CN1C2CCC1CC(N(C(=O)CS(=O)(=O)c1ccccc1)C(c1ccc(Cl)cc1)C1CC1)C2` (racemic) [Example 93, N-[(4-chlorophenyl)(cyclopropyl)methyl]-N-(8-methyl-8-azabicyclo[3.2.1]oct-3-yl)-2-(phenylsulfonyl)acetamide], the IC50 was 50 to 200 nM.

Regarding `CC(C)S(=O)(=O)c1ccc(C(C2CC2)N(Cc2ccc(F)cn2)C(=O)C2CC2c2ccc(F)cc2)cc1` (stereo not drawn) [Example 238], the IC50 was in the range of 50 to 200 nM.

As for `CCS(=O)(=O)c1cccc(C(C2CC2)N(Cc2ncccc2F)C(=O)CS(=O)(=O)c2ccccc2)c1` (stereo not drawn) [Example 327], the IC50 lay within 1000 to 2000 nM.

As to `CN1CCC(C(c2ccc(F)cc2F)N(Cc2ncccc2F)C(=O)C2CC2c2ccc(F)cc2)CC1` (stereo not drawn) [Example 145], the IC50 lay in the range of 200 to 1000 nM.

Take `CCS(=O)(=O)c1cccc(C(C2CC2)N(C(=O)C2CC2c2ccc(F)cc2)C2CCC(F)(F)CC2)c1` (stereo not drawn) [Example 219]: the IC50 is 50 to 200 nM.

As to `CSc1cccc(CN(C(=O)C2CC2c2ccc(F)cc2)C(c2ccc(Cl)cc2)C2CC2)n1` (stereo not drawn) [Example 254], the half-inhibitory concentration (IC50) lay within 50 to 200 nM.

`CCS(=O)(=O)c1ccc(C(C2CC2)N(Cc2cccnn2)C(=O)C2CC2c2ccc(F)cc2)cc1` (stereo not drawn) [Example 231]: the IC50 fell in the range of 50 to 200 nM.

On to `O=C(C1CC1c1ccc(F)cc1)N(Cc1cccnn1)C(c1ccc(S(=O)(=O)C2CC2)cc1)C1CC1` (stereo not drawn) [Example 248], for which the IC50 lay in the range of 200 to 1000 nM.

As to `CC(C)S(=O)(=O)c1ccc(C(C2CC2)N(Cc2cccnn2)C(=O)C2CC2c2ccc(F)cc2)cc1` (stereo not drawn) [Example 236], the IC50 fell in the range of 50 to 200 nM.

As for `CN1CC(C(c2ccc(OC(F)F)cc2)N(Cc2ncccc2F)C(=O)C2CC2c2ccc(F)cc2)C1` (stereo not drawn) [Example 151], the IC50 was 200 to 1000 nM.

As to `CC(CC(=O)N(Cc1cccnn1)C(c1ccc(OC(F)F)cc1)C1CC1)c1ccc(F)cc1` (stereo not drawn) [Example 262], the IC50 is less than 50 nM.

For the compound `O=C(CS(=O)(=O)c1ccc(F)cc1)N(C1CCOCC1)C(c1ccc(OC(F)F)cc1)C1CC1` (stereo not drawn) [Example 317], the 50% inhibitory concentration (IC50) was 200 to 1000 nM.

Consider `CN1CC(C(c2ccc(OC(F)F)cc2)N(Cc2ccc(C(F)(F)F)cn2)C(=O)C2CC2c2ccc(F)cc2)C1` (stereo not drawn) [Example 160], for which the half-maximal inhibitory concentration (IC50) is 200 to 1000 nM.

For `O=C(C1CC1c1cccc(C(F)(F)F)c1)N(Cc1cccnn1)C(c1ccc(OC(F)F)cc1)C1CC1` (stereo not drawn) [Example 184], the IC50 lay in the range of 200 to 1000 nM.

Turning to `CC(C)S(=O)(=O)c1cccc(C(C2CC2)N(Cc2cccnn2)C(=O)C2CC2c2ccc(F)cc2)c1` (stereo not drawn) [Example 241], the half-maximal inhibitory concentration (IC50) lay within 200 to 1000 nM.

For the compound `O=C(CS(=O)(=O)c1ccccc1)N(Cc1ccc(C(F)(F)F)nc1)C(c1ccc(OC(F)F)cc1)C1CC1` (stereo not drawn) [Example 301], the 50% inhibitory concentration (IC50) was in the range of 50 to 200 nM.

With `CCC(c1ccc(S(C)(=O)=O)cc1)N(Cc1cccnn1)C(=O)C1CC1c1ccc(F)cc1` (stereo not drawn) [Example 125], the 50% inhibitory concentration (IC50) fell in the range of 1000 to 2000 nM.

In the case of `CCC(c1ccc(S(=O)(=O)CC)cc1)N(Cc1ccc(F)cn1)C(=O)C1CC1c1ccc(F)cc1` (stereo not drawn) [Example 117], the IC50 was in the range of 50 to 200 nM.

As for `CCS(=O)(=O)c1cccc(C(C2CC2)N(Cc2cccnn2)C(=O)C2CC2c2cccc(C(F)(F)F)c2)c1` (stereo not drawn) [Example 226], the IC50 lay within 200 to 1000 nM.

As for `CC(c1ccc(Cl)cc1)N(C(=O)CS(=O)(=O)c1ccc(F)cc1)C1CC2CCC(C1)N2C` (stereo not drawn) [Example 280], the half-inhibitory concentration (IC50) was 200 to 1000 nM.

For the compound `O=C(C1CC1c1ccc(F)cc1)N(Cc1ccccn1)C(c1ccc(Cl)cc1)C1CC1` (stereo not drawn) [Example 10, N-[(4-chlorophenyl)(cyclopropyl)methyl]-2-(4-fluorophenyl)-N-(pyridin-2-ylmethyl)cyclopropanecarboxamide], the IC50 is 50 to 200 nM.

As to `CC(c1ccc(S(C)(=O)=O)cc1)N(Cc1ccc(C(F)(F)F)nc1)C(=O)C1CC1c1ccc(F)cc1` (stereo not drawn) [Example 126], the IC50 was in the range of 200 to 1000 nM.

For the compound `CCS(=O)(=O)c1cccc(C(C2CC2)N(Cc2ccc(F)cn2)C(=O)C2CC2c2ccc(OC(F)F)cc2)c1` (stereo not drawn) [Example 222], the IC50 was 50 to 200 nM.

With `CC(CC(=O)N(Cc1ccc(C(F)(F)F)nc1)C(C)c1ccc2c(c1)CCC2)c1ccc(F)cc1` (single isomer, unassigned) [Compound 39, N-[1-(2,3-dihydro-1H-inden-5-yl)ethyl]-3-(4-fluorophenyl)-N-{[6-(trifluoromethyl)pyridin-3-yl]methyl}butanamide], the IC50 was in the range of 50 to 200 nM.

For `CC(C)[C@@H](c1ccc(F)cc1)N(CCN1CCC(F)CC1)C(=O)C1(S(=O)(=O)c2ccc(F)cc2)CC1` (single isomer, unassigned) [Example 94], the half-maximal inhibitory concentration (IC50) is 50 to 200 nM.

On to `CN1C2CCC1CC(N(C(=O)CS(=O)(=O)c1ccc(F)cc1)C(c1ccc(Cl)cc1)C1CC1)C2` (stereo not drawn) [Example 80, N-[(4-chlorophenyl)(cyclopropyl)methyl]-2-[(4-fluorophenyl)sulfonyl]-N-(8-methyl-8-azabicyclo[3.2.1]octan-3-yl)acetamide], for which the 50% inhibitory concentration (IC50) fell in the range of 200 to 1000 nM.

As to `N#Cc1cccc(C(C2CC2)N(Cc2ccc(C(F)(F)F)nc2)C(=O)CS(=O)(=O)c2ccc(F)cc2)c1` (stereo not drawn) [Example 332], the IC50 fell in the range of 50 to 200 nM.

As for `CC(C)C(c1ccc(OC(F)F)cc1)N(Cc1cccnn1)C(=O)C1CC1c1ccc(F)cc1` (stereo not drawn) [Example 114], the IC50 fell in the range of 50 to 200 nM.

Regarding `CC(C)S(=O)(=O)c1ccc(C(C2CC2)N(Cc2ncccc2F)C(=O)C2CC2c2ccc(F)cc2)cc1` (stereo not drawn) [Example 234], the IC50 was in the range of 200 to 1000 nM.

In the case of `CN1CCC(C(c2ccc(F)cc2F)N(Cc2ccc(F)cn2)C(=O)CS(=O)(=O)c2ccc(F)cc2)CC1` (stereo not drawn) [Example 287], the IC50 was in the range of 200 to 1000 nM.

As to `N#Cc1cccc(C(C2CC2)N(Cc2ncccc2F)C(=O)C2CC2c2ccc(F)cc2)c1` (stereo not drawn) [Example 252], the IC50 is 50 to 200 nM.

As for `CC(C)S(=O)(=O)c1cccc(C(C2CC2)N(Cc2ncccc2F)C(=O)C2CC2c2ccc(F)cc2)c1` (stereo not drawn) [Example 246], the IC50 is 200 to 1000 nM.

Take `CCC(c1ccc(S(C)(=O)=O)cc1)N(Cc1ccc(C(F)(F)F)nc1)C(=O)C1CC1c1ccc(F)cc1` (stereo not drawn) [Example 120]: the IC50 was 200 to 1000 nM.

In the case of `CC(C)(C(=O)N(Cc1cccnn1)C(c1ccc(OC(F)F)cc1)C1CC1)S(=O)(=O)c1ccc(F)cc1` (stereo not drawn) [Example 311], the half-maximal inhibitory concentration (IC50) fell in the range of 200 to 1000 nM.

Take `Cc1cccc(CN(C(=O)CS(=O)(=O)c2ccc(F)cc2)C(c2ccccc2OC(F)(F)F)C2CC2)n1` (stereo not drawn) [Example 331]: the half-maximal inhibitory concentration (IC50) was in the range of 50 to 200 nM.

`CC(CC(=O)N(Cc1ccc(F)cn1)C(c1ccc(F)cc1)C1CCCO1)c1ccc(F)cc1` (stereo not drawn) [Example 270]: the IC50 fell in the range of 50 to 200 nM.

Consider `O=C(C1CC1c1ccc(F)cc1)N(Cc1ncccc1F)C(c1ccc(F)cc1)C1CCOC1` (stereo not drawn) [Example 172], for which the half-inhibitory concentration (IC50) is 50 to 200 nM.

In the case of `CC(C(=O)N(Cc1ccccn1)C(c1ccc(Cl)cc1)C1CC1)S(=O)(=O)c1ccc(F)cc1` (single isomer, unassigned) [Example 297], the half-maximal inhibitory concentration (IC50) lay in the range of 200 to 1000 nM.

On to `CCS(=O)(=O)c1cccc(C(C2CC2)N(C(=O)C2CC2c2ccccc2OC(F)(F)F)C2CCOCC2)c1` (stereo not drawn) [Example 220], for which the IC50 lay within 50 to 200 nM.

Consider `C[C@@H](CC(=O)N(Cc1ccccn1)C1(c2cccc(Br)c2)CC1)c1ccc(F)cc1` (single isomer, unassigned) [Example 96], for which the half-inhibitory concentration (IC50) is 50 to 200 nM.

For `O=C(CS(=O)(=O)c1ccccc1)N(Cc1ncccc1F)C(c1ccc(OC(F)F)cc1)C1CC1` (stereo not drawn) [Example 304], the IC50 lay in the range of 50 to 200 nM.

With `O=C(CS(=O)(=O)c1ccc(F)cc1)N(Cc1ccc(C(F)(F)F)nc1)C(c1ccc(OC(F)F)cc1)C1CC1` (stereo not drawn) [Example 312], the 50% inhibitory concentration (IC50) fell in the range of 50 to 200 nM.
